According to patent US11878973B2, “Bicyclic compounds and their uses” (NOVARTIS AG, priority 2021, dated 2024):
Where two headings read alike, the source gives them in different places.

Tests used:
WRN helicase = WRN helicase (Homo sapiens (Human), UniProt Q14191); assay: In vitro enzymatic activity assay on WRN helicase (DNA dependent ATPase assay, ADP-Glo); assay type: biochemical; conditions: geometric means of at least 2 determinations; read-out: WRN ATPase Activity (IC50)
Outline: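 DNA-dependent ATPase activity was measured by ADP-Glo luminescent ADP detection after a 30-min room-temperature reaction. The reaction contained 10 nM WRN (residues N517-P1238), 0.2 nM FLAP26 and 300 µM ATP at pH 7.5 with 2 mM MgCl2. Compounds were tested as 10-point half-log series in duplicate; IC50 values are geometric means from at least two independent experiments.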

SW48 cells = assay: Proliferation assay SW48 (CellTiterGlo, 96 hours)
DLD1-WRN-KO cells = assay: Proliferation assay DLD1-WRN-KO (CellTiterGlo, 96 hours; off-target effects); conditions: read-out: Proliferation Assay DLD1-WRN-KO (GI50)
[1] = Homo sapiens, SW48, read-out: Proliferation Assay SW48 (GI50)
[2] = read-out: Proliferation Assay SW48 (GI50), SW48 cell line, geometric means of at least 2 determinations
[3] = DLD1-WRN-KO cell line, geometric means of at least 2 determinations

Sequence of WRN helicase (Q14191 517-1238): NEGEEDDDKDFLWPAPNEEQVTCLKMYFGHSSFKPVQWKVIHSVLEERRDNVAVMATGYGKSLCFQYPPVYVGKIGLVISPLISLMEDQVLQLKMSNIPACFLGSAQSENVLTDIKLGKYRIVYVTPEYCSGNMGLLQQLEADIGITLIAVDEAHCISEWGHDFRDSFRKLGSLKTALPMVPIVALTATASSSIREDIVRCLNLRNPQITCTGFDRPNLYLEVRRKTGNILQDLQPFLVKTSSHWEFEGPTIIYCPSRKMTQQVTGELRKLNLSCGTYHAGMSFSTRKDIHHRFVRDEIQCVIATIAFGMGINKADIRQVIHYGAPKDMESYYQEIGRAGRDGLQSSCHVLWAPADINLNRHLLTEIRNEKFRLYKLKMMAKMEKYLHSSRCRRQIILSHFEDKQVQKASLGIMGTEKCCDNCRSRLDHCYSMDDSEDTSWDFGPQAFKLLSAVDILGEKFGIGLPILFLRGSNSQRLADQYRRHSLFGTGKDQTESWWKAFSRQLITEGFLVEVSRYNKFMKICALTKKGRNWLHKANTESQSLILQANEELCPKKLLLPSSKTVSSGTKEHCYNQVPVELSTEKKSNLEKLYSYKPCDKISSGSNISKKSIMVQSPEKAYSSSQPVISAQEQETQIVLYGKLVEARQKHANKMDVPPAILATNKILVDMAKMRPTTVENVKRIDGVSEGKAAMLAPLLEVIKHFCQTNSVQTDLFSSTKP

Row | IC50 (WRN helicase) [µM] | GI50 (SW48 cells; [1]) [µM] | GI50 (DLD1-WRN-KO cells; Homo sapiens) [µM] | GI50 (SW48 cells; [2]) [µM] | GI50 (DLD1-WRN-KO cells; [3]) [µM] | Compound
1 | 0.07 | 0.05 | > 10 | – | – | CCc1cc(C)c(NC(=O)Cn2c(CC)c(N3CCN(C(=O)c4ncccc4O)CC3)c(=O)n3nc(C4=CCOCC4)nc23)cc1Cl [Example 104, N-(5-chloro-4-ethyl-2-methylphenyl)-2-(2-(3,6-dihydro-2H-pyran-4-yl)-5-ethyl-6-(4-(3-hydroxypicolinoyl)piperazin-1-yl)-7-oxo-[1,2,4]triazolo[1,5-a]pyrimidin-4(7H)-yl)acetamide]
2 | 0.15 | – | – | 0.1 | > 10 | CCc1c(N2CCN(C(=O)c3ncnc(C)c3O)[C@H](C)[C@@H]2C)c(=O)n2nc(C3=CCOCC3)nc2n1CC(=O)Nc1ccc(C(F)(F)F)cc1Cl (single isomer, unassigned) [Example 122]
3 | 0.26 | 1.54 | > 10 | – | – | CCc1c(N2CCN(C(=O)c3ncccc3O)CC2)c(=O)n2nc(N3C[C@@H](F)[C@@H](F)C3)nc2n1CC(=O)Nc1ccc(C(F)(F)F)cc1C [Example 23, 2-(2-((3R,4S)-3,4-difluoropyrrolidin-1-yl)-5-ethyl-6-(4-(3-hydroxypicolinoyl)piperazin-1-yl)-7-oxo-[1,2,4]triazolo[1,5-a]pyrimidin-4(7H)-yl)-N-(2-methyl-4-(trifluoromethyl)phenyl)acetamide]
4 | 0.06 | 0.06 | > 10 | – | – | CCc1c(N2CCN(C(=O)c3ncccc3O)CC2)c(=O)n2nc(C3=CCOCC3)nc2n1CC(=O)Nc1ccc(C(F)(F)F)cc1Cl [Example 96, N-(2-chloro-4-(trifluoromethyl)phenyl)-2-(2-(3,6-dihydro-2H-pyran-4-yl)-5-ethyl-6-(4-(3-hydroxypicolinoyl)piperazin-1-yl)-7-oxo-[1,2,4]triazolo[1,5-a]pyrimidin-4(7H)-yl)acetamide]
5 | 0.12 | – | – | 0.36 | > 10 | CCc1c(N2CCN(C(=O)c3ncccc3O)CC2)c(=O)n2nc(N3CCC[C@@H](F)C3)nc2n1CC(=O)Nc1ccc(C(F)(F)F)cc1Cl (single isomer, unassigned) [Example 15b, ((R)—N-(2-chloro-4-(trifluoromethyl)phenyl)-2-(5-ethyl-2-(3-fluoropiperidin-1-yl)-6-(4-(3-hydroxypicolinoyl)piperazin-1-yl)-7-oxo-[1,2,4]triazolo[1,5-a]pyrimidin-4(7H)-yl)acetamide) or ((S)—N-(2-chloro-4-(trifluoromethyl)phenyl)-2-(5-ethyl-2-(3-fluoropiperidin-1-yl)-6-(4-(3-hydroxypicolinoyl)piperazin-1-yl)-7-oxo-[1,2,4]triazolo[1,5-a]pyrimidin-4(7H)-yl)acetamide)]
6 | 0.1 | 0.05 | > 10 | – | – | CCc1c(N2CCN(C(=O)c3ncnc(C)c3O)CC2)c(=O)n2nc(C3=CCN(C(=O)OC(C)(C)C)CC3)nc2n1CC(=O)Nc1ccc(C(F)(F)F)cc1C [Example 130, tert-butyl 4-(5-ethyl-6-(4-(5-hydroxy-6-methylpyrimidine-4-carbonyl)piperazin-1-yl)-4-(2-((2-methyl-4-(trifluoromethyl)phenyl)amino)-2-oxoethyl)-7-oxo-4,7-dihydro-[1,2,4]triazolo[1,5-a]pyrimidin-2-yl)-3,6-dihydropyridine-1 (2H)-carboxylate]
7 | 0.09 | 0.06 | > 10 | – | – | CCc1c(N2CCN(C(=O)c3ncccc3O)CC2)c(=O)n2nc(C3=CCCCO3)nc2n1CC(=O)Nc1ccc(C(F)(F)F)cc1C [Example 83, 2-(2-(3,4-dihydro-2H-pyran-6-yl)-5-ethyl-6-(4-(3-hydroxypicolinoyl)piperazin-1-yl)-7-oxo-[1,2,4]triazolo[1,5-a]pyrimidin-4(7H)-yl)-N-(2-methyl-4-(trifluoromethyl)phenyl)acetamide]
8 | 0.1 | 0.21 | > 10 | – | – | CCc1c(N2CCN(C(=O)c3ncccc3O)CC2)c(=O)n2nc(C3=CCOCC3)nc2n1CC(=O)Nc1ccc(Cl)cc1Cl [Example 101, N-(2,4-dichlorophenyl)-2-(2-(3,6-dihydro-2H-pyran-4-yl)-5-ethyl-6-(4-(3-hydroxypicolinoyl)piperazin-1-yl)-7-oxo-[1,2,4]triazolo[1,5-a]pyrimidin-4(7H)-yl)acetamide]
9 | 0.09 | 0.45 | > 10 | – | – | CCc1c(N2C[C@@H](C)N(C(=O)c3ncnc(C)c3O)C[C@@H]2C)c(=O)n2nc(C3=CCOCC3)nc2n1CC(=O)Nc1ccc(C(F)(F)F)cc1Cl [Example 118, N-(2-chloro-4-(trifluoromethyl)phenyl)-2-(2-(3,6-dihydro-2H-pyran-4-yl)-5-ethyl-6-((2S,5R)-4-(5-hydroxy-6-methylpyrimidine-4-carbonyl)-2,5-dimethylpiperazin-1-yl)-7-oxo-[1,2,4]triazolo[1,5-a]pyrimidin-4(7H)-yl)acetamide]
10 | 0.04 | 0.03 | > 10 | – | – | CCc1c(N2CCN(C(=O)c3ncnc(C)c3O)CC2)c(=O)n2nc(C3=CCOCC3)nc2n1CC(=O)Nc1ccc(S(F)(F)(F)(F)F)cc1Cl [Example 51, N-(2-chloro-4-(pentafluorosulfanyl)phenyl)-2-(2-(3,6-dihydro-2H-pyran-4-yl)-5-ethyl-6-(4-(5-hydroxy-6-methylpyrimidine-4-carbonyl)piperazin-1-yl)-7-oxo-[1,2,4]triazolo[1,5-a]pyrimidin-4(7H)-yl)acetamide]
11 | 0.09 | 0.21 | > 10 | – | – | CCc1c(N2CCN(C(=O)c3ncccc3O)CC2)c(=O)n2nc(N3CCOCC3)nc2n1CC(=O)Nc1cc(F)c(C(F)(F)F)cc1Cl [Example 7, N-(2-chloro-5-fluoro-4-(trifluoromethyl)phenyl)-2-(5-ethyl-6-(4-(3-hydroxypicolinoyl)piperazin-1-yl)-2-morpholino-7-oxo-[1,2,4]triazolo[1,5-a]pyrimidin-4(7H)-yl)acetamide]
12 | 0.16 | 0.05 | > 10 | – | – | CCc1c(N2CCN(C(=O)c3ncnc(C)c3O)[C@H](C)[C@H]2C)c(=O)n2nc(C3=CCOCC3)nc2n1CC(=O)Nc1ccc(C(F)(F)F)cc1Cl [Example 119, N-(2-chloro-4-(trifluoromethyl)phenyl)-2-(2-(3,6-dihydro-2H-pyran-4-yl)-5-ethyl-6-((2R,3R)-4-(5-hydroxy-6-methylpyrimidine-4-carbonyl)-2,3-dimethylpiperazin-1-yl)-7-oxo-[1,2,4]triazolo[1,5-a]pyrimidin-4(7H)-yl)acetamide]
13 | 0.04 | 0.03 | 6.3 | – | – | CCc1c(N2CCN(C(=O)c3ncccc3O)CC2)c(=O)n2nc(C3=CCOCC3)nc2n1CC(=O)Nc1cc(Cl)c(C(F)(F)F)cc1C [Example 69, N-(5-chloro-2-methyl-4-(trifluoromethyl)phenyl)-2-(2-(3,6-dihydro-2H-pyran-4-yl)-5-ethyl-6-(4-(3-hydroxypicolinoyl)piperazin-1-yl)-7-oxo-[1,2,4]triazolo[1,5-a]pyrimidin-4(7H)-yl)acetamide]
14 | 0.06 | 0.07 | > 10 | – | – | CCc1c(N2CCN(C(=O)c3ncccc3O)CC2)c(=O)n2nc(C3=CCC(OC)CC3)nc2n1CC(=O)Nc1ccc(C(F)(F)F)cc1C (racemic) [Example 80, rac-2-(5-ethyl-6-(4-(3-hydroxypicolinoyl)piperazin-1-yl)-2-(4-methoxycyclohex-1-en-1-yl)-7-oxo-[1,2,4]triazolo[1,5-a]pyrimidin-4(7H)-yl)-N-(2-methyl-4-(trifluoromethyl)phenyl)acetamide]
15 | 0.09 | 0.11 | 5 | – | – | CCc1c(N2CCN(C(=O)c3ncccc3O)CC2)c(=O)n2nc(N3CCCC3)nc2n1CC(=O)Nc1cc(Cl)c(C(F)(F)F)cc1C [Example 19, N-(5-chloro-2-methyl-4-(trifluoromethyl)phenyl)-2-(5-ethyl-6-(4-(3-hydroxypicolinoyl)piperazin-1-yl)-7-oxo-2-(pyrrolidin-1-yl)-[1,2,4]triazolo[1,5-a]pyrimidin-4(7H)-yl)acetamide]
16 | 0.17 | 0.2 | > 10 | – | – | CCc1c(N2CCN(C(=O)c3ncccc3O)CC2)c(=O)n2nc(C3=CCN(CC(F)F)CC3)nc2n1CC(=O)Nc1ccc(C(F)(F)F)cc1C [Example 115, 2-(2-(1-(2,2-difluoroethyl)-1,2,3,6-tetrahydropyridin-4-yl)-5-ethyl-6-(4-(3-hydroxypicolinoyl)piperazin-1-yl)-7-oxo-[1,2,4]triazolo[1,5-a]pyrimidin-4(7H)-yl)-N-(2-methyl-4-(trifluoromethyl)phenyl)acetamide]
17 | 0.05 | 0.06 | > 10 | – | – | CCc1c(N2CCN(C(=O)c3nccc(Cl)c3O)CC2)c(=O)n2nc(C3=CCOCC3)nc2n1CC(=O)Nc1cc(F)c(C(F)(F)F)cc1C [Example 95, 2-(6-(4-(4-chloro-3-hydroxypicolinoyl)piperazin-1-yl)-2-(3,6-dihydro-2H-pyran-4-yl)-5-ethyl-7-oxo-[1,2,4]triazolo[1,5-a]pyrimidin-4(7H)-yl)-N-(5-fluoro-2-methyl-4-(trifluoromethyl)phenyl)acetamide]

Row | Compound | IC50 (WRN helicase) [µM] | GI50 (SW48 cells; [1]) [µM] | GI50 (DLD1-WRN-KO cells; Homo sapiens) [µM] | GI50 (SW48 cells; [2]) [µM] | GI50 (DLD1-WRN-KO cells; [3]) [µM]
18 | Cc1c(N2CCN(C(=O)c3ncccc3O)CC2)c(=O)n2nc(N3CC4CC(C3)O4)nc2n1CC(=O)Nc1ccc(C(F)(F)F)cc1F [Example 22, 2-(2-(6-oxa-3-azabicyclo[3.1.1]heptan-3-yl)-6-(4-(3-hydroxypicolinoyl)piperazin-1-yl)-5-methyl-7-oxo-[1,2,4]triazolo[1,5-a]pyrimidin-4(7H)-yl)-N-(2-fluoro-4-(trifluoromethyl)phenyl)acetamide] | 0.6 | 2.63 | > 10 | – | –
